Experiments:
[1] = tested on: RSV-A Memphis 37b challenge virus; experiment: human RSV challenge model (viral load in nasal washes by plaque assay and PCR); assay type: in vivo
Protocol: Healthy adults received one of the following dosing regimens or placebo over 5 days using the human RSV challenge model.
Subjects were given an intranasal inoculation of RSV-A Memphis 37b challenge virus. Administration of compound (A), or a pharmaceutically acceptable salt thereof, began approximately 12 hours after confirmation of RSV infection as determined by the presence of RSV RNA in nasopharyngeal washes. The test compound was administered as an oral-liquid suspension, wherein the drug vehicle was methyl cellulose and sterile water. The placebo was the drug vehicle without the test compound. Second dosages were started 12 hours after administration of the first dosage, and the remaining second dosages were provided in approximate 12 hour intervals. Nasal washes were collected twice daily approximately 36 to 48 hours after RSV inoculation until Day 12. Viral load was detected and quantified from the aliquots of the nasal wash samples using tissue infectivity plaque assays and PCR. (See DeVincenzo, J. P., et al., Am. J. Respir. Crit. Care. Med. (2010) 182(10):1305-1314) Subjects returned for two follow-up visits on Day 16 (±2 days) and Day 28 (±2 days) post-challenge inoculation.

[2] = half life of the triphosphate compound (B); conditions: triphosphate formed inside the cell
From the text: The compounds (A) and (B), or a pharmaceutically acceptable salt of the foregoing, are described in U.S. Publication Nos. 2013/0165400 and 2015/0051167 and International Publication Nos. WO 2013/142525 and WO 2013/142525, all of which are hereby incorporated by reference in their entireties. Those skilled in the art understand that once compound (A), or a pharmaceutically acceptable salt thereof, is absorbed, the groups attached to 3′ and 5′ positions can be easily removed by esterases, proteases and/or other enzymes. Once inside the cell, the triphosphate (compound (B), or a pharmaceutically acceptable salt thereof) can be formed via metabolization by cellular enzymes.

Row | SMILES | RSV RNA ([1]; Day 12, all treated subjects) | RSV RNA ([1]; Day 16 follow-up) | RSV RNA ([1]; Day 28 follow-up) | RSV viral load compared to the placebo ([1]; all regimens (750/150 mg, 750/500 mg, 375 mg), oral, 5 days, healthy adults, nasal wash, FIG. 1) | clinically significant laboratory abnormalities ([1]; healthy adults, 5 days dosing) | discontinuation of treatment during the study ([1]; healthy adults, 5 days dosing) | reduction of plaque forming units equivalents (PFUe/mL) ([1]; subjects who received 750 mg on Day 1, within the first 24 hours) | half-life [2] [h]
1 | CC(C)C(=O)OC[C@@]1(CCl)O[C@@H](n2ccc(N)nc2=O)[C@H](F)[C@@H]1OC(=O)C(C)C [Compound (A)] | undetectable | undetectable | undetectable | marked reduction in RSV viral load | no clinically significant laboratory abnormalities were observed | no subject discontinued treatment | multi-log reduction | –
2 | Nc1ccn([C@@H]2O[C@](CCl)(COP(=O)(O)OP(=O)(O)OP(=O)(O)O)[C@@H](O)[C@H]2F)c(=O)n1 [Compound (B)] | – | – | – | – | – | – | – | ~17.6
